Test [1] deals with LGR5-positive cancer stem cell. Briefly: Tumor tissue sections of LGR5-iCT organoid xenograft (tdTomato fluorescence, KRT20 immunostaining). Format: in vivo, NOG mice. To be noted: tumor section on the 5th day from start of administration, daily for 5 days. An excerpt:
First, an IRES-iCaspase9-T2A-tdTomato construct was introduced into the LGR5 gene locus of the cultured organoid derived from colon cancer by the same method as in Experimental Example 1. Hereinafter, these organoids may be referred to as “LGR5-iCT organoids” in some cases.
iCaspase 9 is a drug-induced suicide gene. The iCaspase 9 has no activity in a monomer, but forms a dimer in the presence of AP20187 (dimerizer, APExBIO) to induce apoptosis. Also, TdTomato is a kind of red fluorescent protein (RFP).
FIG. 4 is a diagram illustrating a structure of the completed LGR5 gene locus and behavior of the drug-induced suicide gene. […] Therefore, it is possible to confirm the presence of the LGR5-positive cell by observing the fluorescence of the tdTomato. […] As a result, the fluorescence of the tdTomato becomes not observed.
The LGR5-iCT organoid was xenografted under the renal capsule of NOG mice (7-12 weeks old, male) by the same method as Experimental Example 2. […] Thereafter, a tumor size of each mouse was measured regularly.
FIGS. 5 (a) and 5(b) show fluorescence micrographs of a result obtained by extracting a tumor of each mouse on the 5th day from the start of administration of the AP20187 to prepare a tissue section and detecting the fluorescence of the tdTomato and KRT20 as a differentiation marker by immunostaining. […]

For test [2], the system named is tumor derived from LGR5-iCT organoid. Briefly: Tumor size of LGR5-iCT organoid xenograft measured regularly. Format: in vivo, NOG mice. The protocol:
The LGR5-iCT organoid was xenografted under the renal capsule of NOG mice (7-12 weeks old, male) by the same method as Experimental Example 2. Subsequently, after a tumor was formed, the AP20187 was administered to mice daily for 5 days. In addition, control mice to which only a solvent was administered daily for 5 days. Thereafter, a tumor size of each mouse was measured regularly.
In addition, FIG. 6 is a graph showing a result obtained by measuring the size of a tumor of each of a mouse (Dimerizer) to which the AP20187 is administered and the control mouse (Vehicle), regularly. As a result, it was confirmed that the tumor size was reduced by the administration of the AP20187.
In addition, the inventors examined the expression of the LGR5 gene in the tumor tissue after the administration of the AP20187. […] In addition, it was also clear that a re-increase of the tumor size corresponds to re-expression of the LGR5 gene.

Test [3] concerns cancer cell. The test is described as follows: LGR5-iCT/CMV-GFP organoid screening, GFP fluorescence. Format: cell-based, human. As to conditions: final concentration shown in FIG. 8; DMSO control. An excerpt:
A CMV-GFP construct was further introduced into the LGR5-iCT organoid prepared in Experimental Example 4. In the CMV-GFP construct, a GFP gene was linked downstream of the CMV promoter, which is the forced expression promoter. Therefore, regardless of whether or not the LGR5 gene was expressed, the GFP gene was expressed in all cells and emitted fluorescence of the GFP protein. Hereinafter, these organoids may be referred to as “LGR5-iCT/CMV-GFP organoids” in some cases.
In the LGR5-iCT/CMV-GFP organoid, survival activity of the cancer cell can be observed by fluorescence of GFP, and survival activity of the cancer stem cell can be observed by fluorescence of tdTomato.
Using the LGR5-iCT/CMV-GFP organoid, high-throughput screening of existing anticancer drugs used for the treatment of colon cancer was performed, and the effects on the cancer cells and the cancer stem cells were examined.
FIG. 8 is a micrograph of an organoid showing a typical result. In FIG. 8, “BRIGHT FIELD” indicates a bright field observation image. “CMV-GFP” indicates a fluorescence micrograph obtained by observing GFP fluorescence”. “LGR5-tdTomato” indicates a fluorescence micrograph obtained by observing tdTomato fluorescence. “Merge” indicates the result obtained by synthesizing the bright-field observation image, the GFP fluorescence micrograph, and the micrograph of tdTomato fluorescence. […]

Test [4] deals with cancer stem cell. The test is described as follows: LGR5-iCT/CMV-GFP organoid screening, tdTomato fluorescence. As to conditions: final concentration shown in FIG. 8; DMSO control. Format: cell-based, human.
Text: In addition, Irinotecan, Cetuximab, and Oxaliplatin are existing anticancer drugs. In addition, “DMSO” refers to dimethyl sulfoxide added to the medium instead of the anticancer drug as a control.

As to `CC[C@H](C(=O)N1CCCC[C@H]1C(=O)O[C@H](CCc1ccc(OC)c(OC)c1)c1cccc(OCC(=O)NCC(CNC(=O)COc2cccc([C@@H](CCc3ccc(OC)c(OC)c3)OC(=O)[C@@H]3CCCCN3C(=O)[C@@H](CC)c3cc(OC)c(OC)c(OC)c3)c2)CN(C)C)c1)c1cc(OC)c(OC)c(OC)c1` [AP20187], in test [1], the “effect on LGR5-negative cell” value is “remained intact” and the “effect on LGR5-positive cancer stem cell (apoptosis)” value is listed as “completely died”. Moreover, the tumor size result in test [2] (after administration daily for 5 days) is reported as “reduced”. In addition, the tumor growth entry in test [2] (continuous cancer stem cell treatment, tumor not completely cured) is reported as “could suppress tumor growth”. Also, in test [2] (expression once disappeared, corresponds to re-increase of tumor size), the “expression of the LGR5 gene in the tumor tissue after administration” value was “recognized again”. In addition, the “tumor size, eventually” value in test [2] (later after the end of the 5-day administration) is reported as “increased again”.

Consider `CCc1c2c(nc3ccc(OC(=O)N4CCC(N5CCCCC5)CC4)cc13)-c1cc3c(c(=O)n1C2)COC(=O)[C@]3(O)CC` [irinotecan], for which, in test [3], the “effect against the cancer cell (GFP fluorescence)” value is on record as “showed a growth suppression effect”. Also, the “effect against the cancer stem cell (tdTomato fluorescence)” value in test [4] was “not effective”.

As to `O=C1[O][Pt]2([NH][C@@H]3CCCC[C@H]3[NH]2)[O]C1=O` [oxaliplatin], the “effect against the cancer cell (GFP fluorescence)” value in test [3] is reported as “kills”. In test [4], the “effect against the cancer stem cell (tdTomato fluorescence)” value is recorded as “kills”.

The values above are taken from patent US11698366B2, “Human tissue stem cell and use thereof” (KEIO UNIVERSITY, priority 2017, dated 2023).
